Literature values in US10596159B2, “Method and composition for treating cachexia and eating disorders” (India Globalization Capital, Inc., priority 2015, dated 2020).
Where two headings read alike, the source gives them in different places.

Legend:
[1] = HIV-positive and cancer patients; Gorter, 1999
[2] = advanced cancer patients, Ronga, et al. 2014

Row | SMILES | appetite [1] | body weight [1] | appetite stimulation (Suzuki, et al. 2013) | effect on weight loss (Suzuki, et al. 2013) | appetite stimulation [2] | effect on progressive weight loss [2]
1 | CCCCCc1cc(O)c2c(c1)OC(C)(C)[C@@H]1CCC(C)=C[C@@H]21 [THC, Delta-9-tetrahydrocannabinol] | stimulation of appetite | increase of body weight | – | – | – | –
2 | CN1CCC(=C2c3ccccc3C=Cc3ccccc32)CC1.Cl [cyproheptadine, 4-(5H-dibenzo [a,d]cyclohepten-5-ylidene)-1-methylpiperidine hydrochloride] | – | – | effective in stimulating appetite | only slight effects on weight loss | only mildly stimulated appetite | did not prevent progressive weight loss
